Assays:
Assay in all cases: relative viability (nuclei count vs DMSO), 5 days (fraction); higher = more cells survive
[1] = compound: O=C(CCCCCCNC(=O)c1cnc(N(c2ccccc2)c2ccccc2)nc1)NO [Ricolinostat] + Cc1nc(Nc2ncc(C(=O)Nc3c(C)cccc3Cl)s2)cc(N2CCN(CCO)CC2)n1 [Dasatinib] (partner 0.075 µM)
Summary of the method: (§1)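 Lung cancer cell lines, seeded in 1536-well plates, were treated the following day by pin tool with a single drug or with five library-drug doses (not always all listed) in √10 steps on top of a fixed anchor-drug dose. Cells were fixed and nuclei stained in one step after 5 days, and nuclei were counted. Relative viability is the nuclei count for treated wells divided by that for vehicle wells, reported as medians of duplicate plates.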

[2] = compound: C1=CC=C(C(=C1)C2=CC=C(C=C2)C3=CSC4=C3C(=C(C(=O)N4)C#N)O)O + CS(=O)(=O)CCNCc1ccc(-c2ccc3ncnc(Nc4ccc(OCc5cccc(F)c5)c(Cl)c4)c3c2)o1 [Lapatinib] (partner 2 µM)
Summary of the method: as §1

[3] = compound: C1=CC=C(C(=C1)C2=CC=C(C=C2)C3=CSC4=C3C(=C(C(=O)N4)C#N)O)O + CC1(C)CCC(c2ccc(Cl)cc2)=C(CN2CCN(c3ccc(C(=O)NS(=O)(=O)c4ccc(N[C@H](CCN5CCOCC5)CSc5ccccc5)c(S(=O)(=O)C(F)(F)F)c4)cc3)CC2)C1 [Navitoclax] (partner 0.5 µM)
Summary of the method: as §1

[4] = compound: CC1=CN2C(=O)C=C(N=C2C(=C1)C(C)NC3=CC=CC=C3)N4CCOCC4 [TGX 221] + O=C(CCCCCCC(=O)Nc1ccccc1)NO [Vorinostat] (partner 1 µM)
Summary of the method: as §1

Cell Line	relative viability ([1]; first compound 0.08 µM)	relative viability ([1]; first compound 0.253 µM)	relative viability ([1]; first compound 0.8 µM)	relative viability ([1]; first compound 2.53 µM)	relative viability ([2]; first compound 0.08 µM)	relative viability ([2]; first compound 0.253 µM)	relative viability ([2]; first compound 0.8 µM)	relative viability ([2]; first compound 2.53 µM)	relative viability ([2]; first compound 8 µM)	relative viability ([3]; first compound 0.08 µM)	relative viability ([3]; first compound 0.253 µM)	relative viability ([3]; first compound 0.8 µM)	relative viability ([3]; first compound 2.53 µM)	relative viability ([3]; first compound 8 µM)	relative viability ([4]; first compound 0.08 µM)	relative viability ([4]; first compound 0.253 µM)	relative viability ([4]; first compound 0.8 µM)	relative viability ([4]; first compound 2.53 µM)	relative viability ([4]; first compound 8 µM)
LXF-289	0.193	0.274	0.272	0.306	0.89	0.895	0.917	0.908	0.924	0.951	0.968	0.996	0.994	0.967	0.77	0.757	0.732	0.714	0.771
NCI-H2085	0.205	0.256	0.18	0.217	0.608	0.841	0.677	0.685	0.671	1.12	1.31	1.06	1.25	1.01	0.86	0.667	0.562	0.416	0.436
EMC-BAC-2	0.316	0.291	0.27	0.242	0.76	1	0.917	0.894	0.812	0.963	1.28	1.2	1.46	0.774	0.414	0.461	0.426	0.493	0.424
NCI-H3122	0.791	0.903	0.899	0.562	1.05	1.17	1.06	1.06	1.02	1.01	1.11	1	1.01	1.07	1.02	0.823	1.08	0.969	1.04
LC-2-ad	0.41	0.566	0.482	0.455	0.781	1.01	0.903	1.1	1.11	0.464	0.382	0.687	0.421	0.361	0.676	0.682	0.761	0.71	0.67
NCI-H1734	0.463	0.516	0.51	0.571	1.09	1.05	1.16	1.01	0.887	0.793	0.979	0.886	0.972	0.492	0.675	0.67	0.787	0.702	0.764
NCI-H1975	0.402	0.354	0.307	0.381	0.756	1.01	0.832	0.895	0.766	0.958	1.25	1.15	1.22	0.731	0.749	0.656	0.689	0.718	0.607
NCI-H1793	–	0.397	0.348	0.322	0.583	0.765	0.825	0.701	0.598	0.406	0.753	0.41	0.443	0.359	0.612	0.521	0.589	0.592	0.588
